# Key:
# [1] = tested on: Actinomyces viscosus (ATCC 15987); assay: Disc agar diffusion test; format: cell-based; settings: 6 mm paper disc, 37, anaerobic, 24 hours, mean±S.D. (n=3); zone not over 6 mm = negative
# Protocol: (§1) Lactobacillus fermentum SG-[…] was cultured in liquid medium. MRS medium was used in this embodiment. […]. The fermentation broth was concentrated into 30-fold of original concentration and dialyzed with SPECTRA/POR® Dialysis Membrane (MWCO:3500, Spectrum Laboratories Inc, CA) for 48 hours. Lactobacillus fermentum SG-[…] and concentrate fermentation product were diluted into various concentrations according to experimental requirements. Disc agar diffusion test, broth dilution method, and co-cultivation test of Lactobacillus fermentum SG-[…] with Streptococcus mutans (ATCC 25175), Streptococcus sanguis (ATCC 49295), Porphyromonas gingivalis (ATCC 33277), and Actinomyces viscosus (ATCC 15987) were separately performed to understand the inhibition of pathogen growth. Above four pathogens strains were purchased from Bioresource Collection and Research Center of Food Industry Research and Development Institute in Taiwan or ATCC. […] Dip bacteria culture with sterile cotton swab for 3 seconds, and each bacteria was smeared on agar plates in three directions to evenly distribute the incoculum. After dialyzing 30-fold fermentation product of Lactobacillus fermentum SG-[…], adjust concentrate to 4-fold concentrate (LFP4), 2-fold concentrate (LFP2) and 1-fold (LFP1) (unconcentrated fermentation broth). […] The diameter of sterile paper disc was 6 mm. The positive bacterial inhibition effect was determined by over 6 mm bacterial inhibition zone. Otherwise, it was defined as negative bacterial inhibition effect. The cultural condition was under the temperature of 37 for 24 hours. The paper disc was used in control group containing tetracycline. The inhibition zone value was shown as mean±S.D. (n=3).
# [2] = tested on: Porphyromonas gingivalis (ATCC 33277); assay: Disc agar diffusion test; format: cell-based; settings: 6 mm paper disc, 37, anaerobic, 24 hours, mean±S.D. (n=3); zone not over 6 mm = negative
# Protocol: as §1
# [3] = tested on: Streptococcus mutans (ATCC 25175); assay: Disc agar diffusion test; format: cell-based; settings: 6 mm paper disc, 37, anaerobic, 24 hours, mean±S.D. (n=3); zone not over 6 mm = negative
# Protocol: as §1
# [4] = tested on: Streptococcus sanguis (ATCC 49295); assay: Disc agar diffusion test; format: cell-based; settings: 6 mm paper disc, 37, anaerobic, 24 hours, mean±S.D. (n=3); zone not over 6 mm = negative
# Protocol: as §1
# [5] = tested on: artificially induced periodontal disease (ligature wire, Streptococcus mutans inoculated in gum tissue); assay: Evaluation of preventive effect for animal periodontal disease; format: in vivo, Balb/c mice; settings: prevention group; for mice periodontal pocket depth: mean±S.D., listed as pTC
# Protocol: (§2) This trial included treatment groups and control groups. The-treatment group of Lactobacillus fermentum SG-A95 were divided into 6 groups as follows: 3 groups of dialyzed Lactobacillus fermentum SG-A95 fermentation product concentrate such as 4-fold, 2-fold, and 1-fold (unconcentrated fermentation broth) and 3 groups of Lactobacillus fermentum SG-A95 in various numbers of bacteria such as 1×10^9, 2×10^9 and 5×10^9. Two control groups were treated with 0.267 mg/mL of tetracycline and distilled water.
# Twelve of 8-week-old female Balb/c mice were selected for each group (Table 2). The mice were administered with various concentrations of Lactobacillus fermentum SG-A95 fermentation product or live Lactobacillus fermentum SG-A95, and 1 mL of 0.267 mg/mL tetracyccline or distilled water separately. […] Their pathological symptoms were observed and recorded until sacrificing all animals. Until the control group (feeding with distilled water, mock-treated group) showing gum swelling and dental plaque appearance diagnosed by chief dentists, the ligature wire was removed and inoculation of dental pathogen was stopped. At day 4, 8, 12, and 16 after wire removal, mice periodontal pocket depth was examined, 3 mice from each group were killed for blood sampling and samples were collected for histological analysis.
# (§3) Control group was used as a standard to examine subjects from each group by Mann-Whitney test.
# (§4) Experimental data was shown as mean±S.D. The statistical variation of treatment groups and control groups of mice periodontal pocket was performed by One-Way ANOVA and Dunnett multiple post hoc comparison in longitudinal study, and by One-Way ANOVA and LSD multiple post hoc comparison in cross-sectional study. Besides, Mann-Whitney test was used to examine the number of periodontal pocket improving individuals. The statistical significance level of p value was 0.05.
# [6] = tested on: artificially induced periodontal disease (ligature wire, Streptococcus mutans inoculated in gum tissue); assay: Evaluation of therapeutic effect for animal periodontal disease; format: in vivo, Balb/c mice; settings: treatment group; for mice periodontal pocket depth: mean±S.D.
# Protocol: as §2
# Twelve of 8-week-old female Balb/c mice were selected for each group (Table 3). […] After diagnosis of diseased tissue by chief dentists, they were administered different concentrations of Lactobacillus fermentum SG-A95 fermentation product, live Lactobacillus fermentum SG-A95, 1 mL of 0.267 mg/mL tetracycline or distill water every day. The symptoms were recorded. The wire was removed at the beginning of the treatment and stop periodontal pathogen inoculation. At day 4, 8, 12, and 16 after wire removal, mice periodontal pocket depth was examined. 3 mice from each group were killed for blood sampling and histological analysis.
# as §3, §4
smiles,measurement,setting,value
CN(C)[C@@H]1C(O)=C(C(N)=O)C(=O)[C@@]2(O)C(O)=C3C(=O)c4c(O)cccc4[C@@](C)(O)[C@H]3C[C@@H]12 [tetracycline],"Bacterial inhibition zone, Actinomyces viscosus",[1],48.2 ± 2.4 mm
same,"Bacterial inhibition zone, Porphyromonas gingivalis",[2],33.4 ± 2.2 mm
same,"Bacterial inhibition zone, Streptococcus mutans",[3],29.7 ± 2.0 mm
same,"Bacterial inhibition zone, Streptococcus sanguis",[4],25.9 ± 1.2 mm
same,periodontal pocket improvement percentage (percentage of improving individual),"[5]; Day 4, against pMT by Mann-Whitney test",62%
same,mice periodontal pocket depth,[5]; Day 4 after wire removal,0.84 ± 0.50 mm
same,periodontal pocket improvement percentage (percentage of improving individual),"[5]; Day 8, against pMT by Mann-Whitney test",50%
same,mice periodontal pocket depth,[5]; Day 8 after wire removal,0.70 ± 0.34 mm
same,periodontal pocket improvement percentage (percentage of improving individual),"[5]; Day 12, against pMT by Mann-Whitney test",71%
same,mice periodontal pocket depth,[5]; Day 12 after wire removal,0.56 ± 0.26 mm
same,periodontal pocket improvement percentage (percentage of improving individual),"[5]; Day 16, against pMT by Mann-Whitney test",100%
same,mice periodontal pocket depth,[5]; Day 16 after wire removal,0.49 ± 0.25 mm
same,periodontal pocket improvement percentage (percentage of improving individual),"[6]; Day 4, against tMT by Mann-Whitney test",30%
same,mice periodontal pocket depth,"[6]; Day 4 after wire removal, listed as pTC",1.05 ± 0.64 mm
same,mice periodontal pocket depth,"[6]; Day 4 after wire removal, listed as tTC",1.05 ± 0.64 mm
same,periodontal pocket improvement percentage (percentage of improving individual),"[6]; Day 8, against tMT by Mann-Whitney test",20%
same,mice periodontal pocket depth,"[6]; Day 8 after wire removal, listed as pTC",0.89 ± 0.44 mm
same,mice periodontal pocket depth,"[6]; Day 8 after wire removal, listed as tTC",0.89 ± 0.44 mm
same,periodontal pocket improvement percentage (percentage of improving individual),"[6]; Day 12, against tMT by Mann-Whitney test",47%
same,mice periodontal pocket depth,[6]; Day 12 after wire removal,0.63 ± 0.37 mm
same,periodontal pocket improvement percentage (percentage of improving individual),"[6]; Day 16, against tMT by Mann-Whitney test",33%
same,mice periodontal pocket depth,"[6]; Day 16 after wire removal, listed as pTC",0.61 ± 0.34 mm
same,mice periodontal pocket depth,"[6]; Day 16 after wire removal, listed as tTC",0.48 ± 0.33 mm
